Experimental data published in EP2062893A1, “Fused imidazoles for cancer treatment” (Bayer Schering Pharma AG, priority 2007, dated 2009).
pIC50: −log10 of the molar value.

Key:
Type in all cases: cell-based
[1] = system: phosphorylated GSK3; test: Cellular pGSK3 assay (phospho-GSK3 Ser9 sandwich ELISA); conditions: Homo sapiens; MCF7 cells, 48h incubation, IC50 of pGSK3 inhibition
Protocol: In order to study the cellular activity of the compounds according to the present invention, an ELISA-based assay has been established for the phosphorylated protein glycogen synthetase kinase 3 (GSK3). The assay is based on a solid phase sandwich ELISA that detects endogenous levels of phosphorylated GSK3 using a phospho-GSK3 (Ser9) specific antibody (BioSource International, Inc.; Catalog #KHO0461). After incubation with cell lysates, the coated antibody captures the phosphorylated GSK3 protein. Following extensive washing, GSK3 polyclonal antibody is added to detect the captured phospho-GSK3 protein. Secondary antibody (anti-rabbit IgG-HRP) is then used to recognize the bound detection antibody. After the second incubation and washing to remove all the excess anti-rabbit IgG-HRP, a substrate solution is added, which is acted upon by the bound enzyme to produce color. The intensity of this colored product is directly proportional to the concentration of GSK-3β [pS9] present in the original specimen. MCF7 cells (ATCC HTB-22) were seeded into 96 well fate bottom plates at a density of 10000 cells/well. After 24 h 1 µl each of the compound dilutions (test compounds were dissolved as 10 mM solutions in dimethylsulfoxide (DMSO) and subsequently diluted) were added into each well of the 96 well plates and incubated for 48h at 37°C in a humidified athmosphere containing 5% CO2. Cells were harvested and lysed in cell extraction buffer (10 mM Tris, pH 7.4, 100 mM NaCl, 1 mM EDTA, 1 mM EGTA, 1 mM NaF, 20 mM Na4P2O7, 2 mM Na3VO4, 1% Triton X-100, 10vol% glycerol, 0.1vol% SDS, 0.5vol% deoxycholate, 1 mM phenylmethylsulfonylfluorid (PMSF)). The lysate were centrifuged for 10 min. at 4°C and the supernatant were transferred to a new tube. 50 µl of sample diluent (standard diluent buffer, Biosource) were added and 100 µl of cell lysate transferred into the tube and vortexed. 100 µl of each diluted cell lysate were added to the appropriate ELISA well plate and incubated for 3h at room temperature. The plates were washed 4 times with 1x wash buffer (Biosource). 50 µl of detection antibody (GSK3 (Ser9) detection antibody; BioSource) were added to each well and incubated for 30 min. at room temperature. The washing procedure was repeated between each step. 100µl of HRP-linked secondary antibody (anti-mouse IgG HRP-linked antibody) were added to each well and incubated for 30 min. at room temperature. 100µl of TMB substrate (0.05vol% 3,3',5,5' tetramethylbenzidine, 0.1vol% hydrogen peroxide, complex polypeptides in a buffered solution; Biosource) were added to each well and incubated for 30 min. at room temperature. Finally 100 µl of Stop solution (0.05vol% α and β unsaturated carbonyl compound) were added to each well and the plate were shaked gently for a few seconds. The absorbance was measured at λ = 450 nm (Wallac Victor2; Perkin Elmer, USA) within 30 min. after adding the stop solution. The analysis of the data was performed using a statistical program (Excel; Microsoft, USA) and the IC50 of pGSK3 inhibition was determined.

[2] = system: OvCAR3 cells; test: Cellular proliferation / Cytotoxicity assay (Alamar Blue / Resazurin cell viability); conditions: Homo sapiens, OVCAR-3, 48h incubation, read-out: Anti-proliferative / Cytotoxic activity (OvCAR3 cells)
Protocol: Wells containing untreated control cells were filled with 200 µl DMEM (Dulbecco's Modified Eagle Medium) containing 0.5vol% v:v DMSO. The cells are then incubated with the substances for 48h at 37°C in a humidified atmosphere containing 5vol% CO2. To determine the viability of the cells, 20 µl of a Resazurin solution (90mg / I) are added. […] Viabilities are expressed as % values.

[3] = system: phosphorylated Akt protein; test: Cellular PI3K / Akt pathway assay (phospho-Akt Ser473 sandwich ELISA); conditions: Homo sapiens; MCF7 cells, ß-Heregulin (20ng/ml) stimulation, 48h incubation
Protocol: In order to study the cellular activity of the compounds according to the present invention, an Enzyme Linked Immunosorbent Assay (ELISA)-based assay has been used specific phospho-AKT. The assay is based on a Sandwich ELISA kit (PathScan™ Phospho-Akt1 (Ser473); Cell Signaling, USA; #7160). The ELISA Kit detects endogenous levels of phosphorylated Akt protein. A phospho-Akt (Ser473) antibody (Cell Signaling, USA; #9271) has been coated onto the microwells. After incubation with cell lysates, the coated antibody captures the phosphorylated Akt protein. Following extensive washing, Akt1 monoclonal antibody (Cell Signaling, USA; #2967) is added to detect the captured phospho-Akt1 protein. HRP-linked anti-mouse antibody (HRP: horseradish peroxidase; Cell Signaling, USA; #7076) is then used to recognize the bound detection antibody. HRP substrate (= 3,3',5,5'-tetramethylbenzidine (TMB); Cell Signaling, USA; #7160) is added to develop colour. The magnitude of optical density for this developed color is proportional to the quantity of phosphorylated Akt protein. MCF7 cells (ATCC HTB-22) are seeded into 96 well fate bottom plates at a density of 10000 cells/well. 24 hours after seeding, the cells are serum starved using low-serum medium (IMEM media including 0,1% charcoal treated FCS (FCS: fetal calf serum)). […] To stimulate Akt phosphorylation, ß-Heregulin (20ng/ml ß-HRG) is added in parallel to the compounds. Wells containing unstimulated control cells (no ß-Heregulin stimulation) are incubated with or without the diluted compound. Wells containing untreated control cells (no compound) are filled with medium containing 0.5% v:v DMSO and are or are not stimulated with ß-Heregulin. Cells are harvested and lysed with brief sonification in 1x cell lysis buffer (20mM Tris (pH7.5), 150 mM NaCl, 1 mM ethylene diaminetetraacetate (EDTA), 1 mM ethylene glycolbis(2-aminoethyl)-N,N,N',N'-tetraacetic acid (EGTA), 1vol% Triton X-100, 2.5mM sodium pyrophosphate, 1 mM β-glycerolphosphate, 1 mM Na3VO4, 1µg/ml leupeptin). The lysate is centrifuged for 10 min. at 4°C and the supernatant is transferred to a new tube. 100 µl of sample diluent (0.1vol% Tween-20, 0.1vol% sodium azide in phosphate buffered saline (PBS)) are added to a microcentrifuge tube and 100 µl of cell lysate are transferred into the tube and vortexed. 100 µl of each diluted cell lysate are added to the appropriate ELISA well, and incubated overnight at 4°C. The plates are washed 4 times with 1x wash buffer (1vol% tween-20, 0.33vol% thymol, in PBS). Next 100 µl of detection antibody (Akt1 (2H10) monoclonal detection antibody; Cell Signaling, USA; #2967) are added to each well and incubation continued for 1h at 37°C. The washing procedure is repeated between each step. 100µl of secondary antibody (anti-mouse IgG HRP-linked antibody; Cell Signaling, USA; #7076) are added to each well and incubated for 30 min. at 37°C. Than, 100µl of TMB substrate (0.05% 3,3',5,5' tetramethylbenzidine, 0.1 % hydrogen peroxide, complex polypeptides in a buffered solution; Cell Signaling, USA; #7160) are added to each well and incubated for 30 min. at 25°C. Finally 100 µl of STOP solution (0.05vol% α and β unsaturated carbonyl compound) are added to each well and the plate are shaked gently. The absorbance is measured at λ =450 nm (Wallac Victor2; Perkin Elmer, USA) within 30 min. after adding the STOP solution. The analysis of the data is performed using a statistical program (Excel; Microsoft, USA). Preferred compounds show an inhibitory activity towards Akt phosphorylation below 10µM.

pIC50 [1]	pIC50 [3]	Compound	pIC50 [2]
5.00 to 6.00		c1ccc(-c2c(-c3ccc(CN4CCC(c5nc(-c6cnccn6)no5)CC4)cc3)nc3ncccn23)cc1 [Example 4, 3-phenyl-2-(4-{[4-(3-pyrazin-2-yl-1,2,4-oxadiazol-5-yl)piperidin-1-yl]methyl}phenyl)imidazo[1,2-a]pyrimidine]	< 5.00
> 6.00	> 6.00	c1ccc(-c2nc(C3CCN(Cc4ccc(-c5nc6ncccn6c5-c5ccsc5)cc4)CC3)n[nH]2)nc1 [Example 34, 2-(4-{[4-(5-pyridin-2-yl-1,2,4-triazol-3-yl)piperidin-1-yl]methyl}phenyl)-3-(3-thienyl)imidazo[1,2-a]pyrimidine]	> 5.00
> 6.00	> 6.00	N#Cc1cccn2c(-c3ccccc3)c(-c3ccc(CN4CCC(c5n[nH]c(-c6ccccn6)n5)CC4)cc3)nc12 [Example 5, 3-phenyl-2-(4-{[4-(5-pyridin-2-yl-1,2,4-triazol-3-yl)piperidin-1-yl]methyl}phenyl)imidazo[1,2-a]pyridine-8-carbonitrile]	
5.00 to 6.00	> 6.00	Fc1cccc(-c2c(-c3ccc(CN4CCC(c5n[nH]c(-c6ccccn6)n5)CC4)cc3)nc3ccccn23)c1 [Example 14, 3-(3-fluorophenyl)-2-(4-{[4-(5-pyridin-2-yl-1,2,4-triazol-3-yl)piperidin-1-yl]methyl}phenyl)imidazo[1,2-a]pyridine]	> 5.00
	> 6.00	Fc1ccccc1-c1c(-c2ccc(CN3CCC(c4n[nH]c(-c5ccccn5)n4)CC3)cc2)nc2ncccn12 [Example 41, 3-(2-fluorophenyl)-2-(4-{[4-(5-pyridin-2-yl-1,2,4-triazol-3-yl)piperidin-1-yl]methyl}phenyl)imidazo[1,2-a]pyrimidine]	
5.00 to 6.00		Clc1nccn2c(-c3ccccc3)c(-c3ccc(CN4CCC(c5n[nH]c(-c6ccccn6)n5)CC4)cc3)nc12 [Example 26, 8-chloro-3-phenyl-2-(4-{[4-(5-pyridin-2-yl-1,2,4-triazol-3-yl)piperidin-1-yl]methyl}phenyl)imidazo[1,2-a]pyrazine]	> 5.00
5.00 to 6.00	> 6.00	c1ccc(-c2c(-c3ccc(CN4CCC(c5n[nH]c(-c6ccccn6)n5)CC4)cc3)nc3ccccn23)cc1 [Example 2, 3-phenyl-2-(4-{[4-(5-pyridin-2-yl-1H-1,2,4-triazol-3-yl)piperidin-1-yl]methyl}phenyl)imidazo[1,2-a]pyridine]	> 5.00
5.00 to 6.00	> 6.00	COc1nccn2c(-c3ccccc3)c(-c3ccc(CN4CCC(c5n[nH]c(-c6ccccn6)n5)CC4)cc3)nc12 [Example 27, 8-methoxy-3-phenyl-2-(4-{[4-(5-pyridin-2-yl-1,2,4-triazol-3-yl)piperidin-1-yl]methyl}phenyl)imidazo[1,2-a]pyrazine]	> 5.00
5.00 to 6.00		c1ccc(-c2nc(C3CCN(Cc4ccc(-c5nc6ncccn6c5-c5cccs5)cc4)CC3)n[nH]2)nc1 [Example 35, 2-(4-{[4-(5-pyridin-2-yl-1,2,4-triazol-3-yl)piperidin-1-yl]methyl}phenyl)-3-(2-thienyl)imidazo[1,2-a]pyrimidine]	> 5.00
> 6.00	> 6.00	Clc1ccc2nc(-c3ccc(CN4CCC(c5n[nH]c(-c6ccccn6)n5)CC4)cc3)c(-c3ccccc3)n2n1 [Example 31, 6-chloro-3-phenyl-2-(4-{[4-(5-pyridin-2-yl-1,2,4-triazol-3-yl)piperidin-1-yl]methyl}phenyl)imidazo[1,2-b]pyridazine]	
5.00 to 6.00		c1ccc(-c2nc(C3CCN(Cc4ccc(-c5nc6ncccn6c5-c5ccncc5)cc4)CC3)n[nH]2)nc1 [Example 36, 3-pyridin-4-yl-2-(4-{[4-(5-pyridin-2-yl-1,2,4-triazol-3-yl)piperidin-1-yl]methyl}phenyl)imidazo[1,2-a]pyrimidine]	< 5.00
> 6.00	> 6.00	NC(=O)c1cccn2c(-c3ccccc3)c(-c3ccc(CN4CCC(c5n[nH]c(-c6ccccn6)n5)CC4)cc3)nc12 [Example 40, 3-phenyl-2-(4-{[4-(5-pyridin-2-yl-1,2,4-triazol-3-yl)piperidin-1-yl]methyl}phenyl)imidazo[1,2-a]pyridine-8-carboxamide]	
5.00 to 6.00		FC(F)(F)c1ccn2c(-c3ccccc3)c(-c3ccc(CN4CCC(c5n[nH]c(-c6ccccn6)n5)CC4)cc3)nc2n1 [Example 28, 3-phenyl-2-(4-{[4-(5-pyridin-2-yl-1,2,4-triazol-3-yl)piperidin-1-yl]methyl}phenyl)-7-(trifluoromethyl)imidazo[1,2-a]pyrimidine]	> 5.00
	> 6.00	c1ccc(-c2nc(C3CCN(Cc4ccc(-c5nc6sccn6c5-c5nccs5)cc4)CC3)n[nH]2)nc1 [Example 42, 6-(4-{[4-(5-pyridin-2-yl-1,2,4-triazol-3-yl)piperidin-1-yl]methyl}phenyl)-5-(1,3-thiazol-2-yl)imidazo[2,1-b][1,3]thiazole]	
